Reference: patent US8318769B2, “Substituted sulfonamide compounds” (Gruenethal GmbH, priority 2008, dated 2012)

What was measured:
[1] = target: T1, bradykinin 1 receptor (B1R) of the rat (Rattus norvegicus, UniProt P97583); experiment: FLIPR Ca2+ assay, B1R antagonism, rat; type: cell-based; conditions: CHO K1 cells with rat B1R gene (rB1R cells), Des-Arg9-bradykinin at EC80, % inhibition compared with the maximum achievable inhibition; for inhibition at 10 µM: CHO-K1, 10 μM test substance, read-out: B1R antagonism, rat [10 μM] % inhibition; for B1R antagonism, rat [10 μM] % inhibition: 10 μM test substance
T1 construct: expressed in transfected cells
T1 sequence (P97583 1-337): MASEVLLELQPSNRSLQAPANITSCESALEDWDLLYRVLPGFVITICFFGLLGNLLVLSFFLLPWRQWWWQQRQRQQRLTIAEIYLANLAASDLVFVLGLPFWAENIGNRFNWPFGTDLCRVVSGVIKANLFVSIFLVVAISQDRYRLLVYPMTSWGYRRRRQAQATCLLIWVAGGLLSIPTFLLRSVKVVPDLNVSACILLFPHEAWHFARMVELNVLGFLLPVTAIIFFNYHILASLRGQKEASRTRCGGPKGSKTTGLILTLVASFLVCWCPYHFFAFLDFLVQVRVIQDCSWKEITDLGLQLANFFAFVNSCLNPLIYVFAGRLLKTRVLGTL
Summary of the method: (§1)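 CHO K1 cells stably expressing human or rat B1R, loaded with Fluo-4 and read in FLIPR (ex 488, em 540 nm, peak fluorescence). Test compound 10 μM preincubated 10-20 min, then EC80 agonist added (Lys-Des-Arg9-bradykinin for human, Des-Arg9-bradykinin for rat); % inhibition relative to maximum achievable inhibition.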

[2] = target: T2, human bradykinin 1 receptor (B1R) (Homo sapiens, UniProt P46663); experiment: FLIPR Ca2+ assay, B1R antagonism, human; type: cell-based; conditions: 10 μM test substance, CHO K1 cells with human B1R gene (hB1R cells), Lys-Des-Arg9-bradykinin at EC80, % inhibition compared with the maximum achievable inhibition; for inhibition at 10 µM: read-out: B1R antagonism, human [10 μM] % inhibition
T2 construct: expressed in transfected cells
T2 sequence (P46663 1-353): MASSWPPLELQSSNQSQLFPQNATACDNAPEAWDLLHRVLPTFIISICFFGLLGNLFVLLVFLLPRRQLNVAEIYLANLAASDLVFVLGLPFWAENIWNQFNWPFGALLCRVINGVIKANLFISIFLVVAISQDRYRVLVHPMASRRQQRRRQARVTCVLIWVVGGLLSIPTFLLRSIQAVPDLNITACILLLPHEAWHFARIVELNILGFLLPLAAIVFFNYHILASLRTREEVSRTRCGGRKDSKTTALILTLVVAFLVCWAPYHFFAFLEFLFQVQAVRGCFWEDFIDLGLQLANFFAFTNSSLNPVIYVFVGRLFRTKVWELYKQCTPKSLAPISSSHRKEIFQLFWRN
Summary of the method: as §1

Row | Compound | inhibition at 10 µM [1] [%] | inhibition at 10 µM [2] [%] | B1R antagonism, rat [10 μM] % inhibition [1] [%] | B1R antagonism, human [10 μM] % inhibition [2] [%]
1 | CN1CCN(CCOC2(c3cccnc3)CCN(C(=O)COCC3CCc4ccccc4N3S(=O)(=O)c3ccc(Cl)c(Cl)c3)CC2)CC1 (stereo not shown) [Example 38, 2-((1-(3,4-dichlorophenylsulfonyl)-1,2,3,4-tetrahydroquinolin-2-yl)methoxy)-1-(4-(2-(4-methylpiperazin-1-yl)ethoxy)-4-(pyridin-3-yl)piperidin-1-yl)ethanone] | 98 | 74 |  | 
2 | COc1cc(C)c(S(=O)(=O)N(CCOCC(=O)N2CCC(OCCN3CCCC3)(c3cccnc3)CC2)C(c2ccccc2)c2ccccc2)c(C)c1 [Example 6, N-benzhydryl-4-methoxy-2,6-dimethyl-N-(2-(2-oxo-2-(4-(pyridin-3-yl)-4-(2-(pyrrolidin-1-yl)ethoxy)piperidin-1-yl)ethoxy)ethyl)benzenesulfonamide] | 100 | 98 |  | 
3 | CN1CCN(CCOC2(c3cccnc3)CCN(C(=O)CC3CCCCN3S(=O)(=O)c3cccc(C(F)(F)F)c3)CC2)CC1 (stereo not shown) [Example 30, 1-(4-(2-(4-methylpiperazin-1-yl)ethoxy)-4-(pyridin-3-yl)piperidin-1-yl)-2-(1-(3-(trifluoromethyl)phenylsulfonyl)piperidin-2-yl)ethanone] | 18 | 31 |  | 
4 | O=C(CC(NS(=O)(=O)c1ccc2ccccc2c1)c1ccccc1)N1CCC(OCCN2CCCCC2)(c2cccnc2)CC1 (stereo not shown) [Example 11, N-(3-oxo-1-phenyl-3-(4-(2-(piperidin-1-yl)ethoxy)-4-(pyridin-3-yl)piperidin-1-yl)propyl)naphthalene-2-sulfonamide] | 52 | 103 |  | 
5 | Cc1cc(S(=O)(=O)N2CCCCC2CCC(=O)N2CCC(OCCCN3CCCCC3)(c3cccnc3)CC2)c(C)cc1Cl (stereo not shown) [Example 12, 3-(1-(4-chloro-2,5-dimethylphenylsulfonyl)piperidin-2-yl)-1-(4-(3-(piperidin-1-yl)propoxy)-4-(pyridin-3-yl)piperidin-1-yl)propan-1-one] | 46 | 103 |  | 
6 | COc1cc(C)c(S(=O)(=O)N2CCCCC2COCC(=O)N2CCC(OCCN3CCN(C)CC3)(c3cccnc3)CC2)c(C)c1 (stereo not shown) [Example 28, 2-((1-(4-methoxy-2,6-dimethylphenylsulfonyl)piperidin-2-yl)methoxy)-1-(4-(2-(4-methylpiperazin-1-yl)ethoxy)-4-(pyridin-3-yl)piperidin-1-yl)ethanone] | 102 | 97 |  | 
7 | O=C(CCCC1CCCCN1S(=O)(=O)c1ccccc1C(F)(F)F)N1CCC(OCCN2CCCC2)(c2cccnc2)CC1 (stereo not shown) [Example 8, 1-(4-(pyridin-3-yl)-4-(2-(pyrrolidin-1-yl)ethoxy)piperidin-1-yl)-4-(1-(2-(trifluoromethyl)phenylsulfonyl)piperidin-2-yl)butan-1-one] | 60 | 70 |  | 
8 | Cc1cccc(Cl)c1S(=O)(=O)N(CCOCC(=O)N1CCC(OCC[N+]2([O-])CCCC2)(c2cccc(F)c2)CC1)C1CC1 [Example 53, 2-chloro-N-cyclopropyl-N-[2-[2-[4-(3-fluorophenyl)-4-[2-(1-oxido-pyrrolidin-1-ium-1-yl)-ethoxy]-piperidin-1-yl]-2-oxo-ethoxy]-ethyl]-6-methyl-benzenesulfonic acid amide] | 102 | 100 |  | 
9 | CN1CCN(CCCOC2(c3cccnc3)CCN(C(=O)CC3CCCCN3S(=O)(=O)c3cccc(C(F)(F)F)c3)CC2)CC1 (stereo not shown) [Example 35, 1-(4-(3-(4-methylpiperazin-1-yl)propoxy)-4-(pyridin-3-yl)piperidin-1-yl)-2-(1-(3-(trifluoromethyl)phenylsulfonyl)piperidin-2-yl)ethanone] | 97 | 21 |  | 
10 | Cc1cc(S(=O)(=O)N2CCCCC2CCC(=O)N2CCC(OCCCN3CCCC3)(c3cccnc3)CC2)c(C)cc1Cl (stereo not shown) [Example 43, 3-(1-(4-chloro-2,5-dimethylphenylsulfonyl)piperidin-2-yl)-1-(4-(pyridin-3-yl)-4-(3-(pyrrolidin-1-yl)propoxy)piperidin-1-yl)propan-1-one] | 67 | 86 |  | 
11 | COc1cc(C)c(S(=O)(=O)N(C)CCOCC(=O)N2CCC(OCCCN3CCCCC3)(c3cccnc3)CC2)c(C)c1 [Example 18, 4-methoxy-N,2,6-trimethyl-N-(2-(2-oxo-2-(4-(3-(piperidin-1-yl)propoxy)-4-(pyridin-3-yl)piperidin-1-yl)ethoxy)ethyl)benzenesulfonamide] | 103 | 102 |  | 
12 | COc1cc(C)c(S(=O)(=O)N2CCCCC2COCC(=O)N2CCC(OCCN3CCCC3)(c3ccncc3)CC2)c(C)c1 (stereo not shown) [Example 84, 2-[[1-[(4-methoxy-2,6-dimethyl-phenyl)sulfonyl]-piperidin-2-yl]-methoxy]-1-[4-pyridin-4-yl-4-(2-pyrrolidin-1-yl-ethoxy)-piperidin-1-yl]-ethanone] | 103 | 100 |  | 
13 | COc1cc(C)c(S(=O)(=O)N(CCOCC(=O)N2CCC(OCCN3CCCC3)(c3ccncc3)CC2)c2ccccc2)c(C)c1 [Example 100, 4-methoxy-2,6-dimethyl-N-[2-[2-oxo-2-[4-pyridin-4-yl-4-(2-pyrrolidin-1-yl-ethoxy)-piperidin-1-yl]-ethoxy]-ethyl]-N-phenyl-benzenesulfonic acid amide] | 102 | 100 |  | 
14 | COc1cc(C)c(S(=O)(=O)N2CCCCC2COCCC(=O)N2CCC(OCCN3CCCC3)(c3cccnc3)CC2)c(C)c1 (stereo not shown) [Example 119, 3-[[1-[(4-methoxy-2,6-dimethyl-phenyl)sulfonyl]-piperidin-2-yl]-methoxy]-1-[4-pyridin-3-yl-4-(2-pyrrolidin-1-yl-ethoxy)-piperidin-1-yl]-propan-1-one] | 102 | 100 |  | 
15 | COc1cc(C)c(S(=O)(=O)N2CCCCC2COCC(=O)N2CCC(OCCCN3CCN(C)CC3)(c3cccnc3)CC2)c(C)c1 (stereo not shown) [Example 33, 2-((1-(4-methoxy-2,6-dimethylphenylsulfonyl)piperidin-2-yl)methoxy)-1-(4-(3-(4-methylpiperazin-1-yl)propoxy)-4-(pyridin-3-yl)piperidin-1-yl)ethanone] | 103 | 98 |  | 
16 | Cc1cccc(Cl)c1S(=O)(=O)N1c2ccccc2OCC1COCC(=O)N1CCC(OCCN2CCCC2)(c2cccc(F)c2)CC1 (stereo not shown) [Example 109, 2-[[4-[(2-chloro-6-methyl-phenyl)sulfonyl]-3,4-dihydro-2H-[1,4]benzoxazin-3-yl]-methoxy]-1-[4-(3-fluorophenyl)-4-(2-pyrrolidin-1-yl-ethoxy)-piperidin-1-yl]-ethanone] | 99 | 91 |  | 
17 | COc1cc(C)c(S(=O)(=O)N(C)CCOCC(=O)N2CCC(OCCCN3CCN(C)CC3)(c3cccnc3)CC2)c(C)c1 [Example 34, 4-methoxy-N,2,6-trimethyl-N-(2-(2-(4-(3-(4-methylpiperazin-1-yl)propoxy)-4-(pyridin-3-yl)piperidin-1-yl)-2-oxoethoxy)ethyl)benzenesulfonamide] | 100 | 99 |  | 
18 | COc1cc(C)c(S(=O)(=O)N(CCOCC(=O)N2CCC(OCCN3CCCC3)(c3cccnc3)CC2)C2CC2)c(C)c1 [Example 3, N-cyclopropyl-4-methoxy-2,6-dimethyl-N-(2-(2-oxo-2-(4-(pyridin-3-yl)-4-(2-(pyrrolidin-1-yl)ethoxy)piperidin-1-yl)ethoxy)ethyl)benzenesulfonamide] | 101 | 100 |  | 
19 | COc1cc(C)c(S(=O)(=O)N2CCCCC2CCCC(=O)N2CCC(OCCN3CCCC3)(c3ccncc3)CC2)c(C)c1 (stereo not shown) [Example 91, 4-[1-[(4-methoxy-2,6-dimethyl-phenyl)sulfonyl]-piperidin-2-yl]-1-[4-pyridin-4-yl-4-(2-pyrrolidin-1-yl-ethoxy)-piperidin-1-yl]-butan-1-one] |  |  | 103 | 100
20 | COc1cc(C)c(S(=O)(=O)N2CCCCC2COCCC(=O)N2CCC(OCCN3CCCC3)(c3cccc(F)c3)CC2)c(C)c1 (stereo not shown) [Example 122, 1-[4-(3-fluorophenyl)-4-(2-pyrrolidin-1-yl-ethoxy)-piperidin-1-yl]-3-[[1-[(4-methoxy-2,6-dimethyl-phenyl)sulfonyl]-piperidin-2-yl]-methoxy]-propan-1-one] |  |  | 100 | 100
